Source: ChEMBL document CHEMBL3526091, “Pharmacokinetics, metabolism, and excretion of the glycogen synthase kinase-3 inhibitor LY2090314 in rats, dogs, and humans: a case study in rapid clearance by extensive metabolism with low circulating metabolite exposure” (Drug Metab Dispos, 2013)

Key:
[1] = Clearance in cancer patient at 80 mg for 60 mins treated 1/8 cycle/day; assay type: ADME, organism-based; parameters: dosed compound name LY2090314; settings: human, in vivo
[2] = Volume of distribution at steady state in Sprague-Dawley rat at 5 mg/kg, iv administered for 30 mins; assay type: ADME, organism-based; parameters: dose 5 mg/kg, dosed compound name [14C]LY2090314, route intravenous; settings: in vivo, read-out: Vdss
[3] = Clearance in cancer patient at 60 mg for 60 mins treated 1/8 cycle/day; assay type: ADME, organism-based; parameters: dosed compound name LY2090314; settings: human, in vivo
Canis familiaris [4] = assay: Total drug recovery in beagle dog at 5 mg/kg, iv administered for 30 mins during 48 hrs time interval by radio analysis; assay type: ADME, organism-based, Canis lupus familiaris; parameters: dose 5 mg/kg, dosed compound name [14C]LY2090314, route intravenous; settings: in vivo
[5] = AUC (0 to infinity) in cancer patient at 20 mg for 60 mins treated 1/1 cycle/day; assay type: ADME, organism-based; parameters: dose 20 mg, time infinity, dosed compound name LY2090314; settings: human, plasma
[6] = Clearance in cancer patient at 120 mg for 60 mins treated 1/1 cycle/day; assay type: ADME, organism-based; parameters: dosed compound name LY2090314; settings: human, in vivo
[7] = Drug metabolism in Mdr1a knockout Sprague-Dawley rat bile at 5 mg/kg, iv administered for 30 mins; assay type: ADME, organism-based; parameters: dose 5 mg/kg, dosed compound name LY2090314, route intravenous; settings: in vivo, 0.5 h
[8] = Drug recovery in bile duct-cannulated Sprague-Dawley rat bile at 5 mg/kg, iv administered for 30 mins during 0 to 12 hrs time interval by radio analysis; assay type: ADME, organism-based; parameters: dose 5 mg/kg, dosed compound name [14C]LY2090314, route intravenous; settings: in vivo
[9] = Tmax in cancer patient at 80 mg for 60 mins treated 1/8 cycle/day; assay type: ADME, organism-based; parameters: dosed compound name LY2090314; settings: human, in vivo
[10] = Clearance in cancer patient at 20 mg for 60 mins treated 2/1 cycle/day; assay type: ADME, organism-based; parameters: dosed compound name LY2090314; settings: human, in vivo
[11] = AUC (0 to infinity) in cancer patient at 120 mg for 60 mins treated 1/8 cycle/day; assay type: ADME, organism-based; parameters: dose 120 mg, time infinity, dosed compound name LY2090314; settings: human, plasma
[12] = Drug recovery in bile duct-cannulated Sprague-Dawley rat urine at 5 mg/kg, iv administered for 30 mins during 0 to 168 hrs time interval by radio analysis; assay type: ADME, organism-based; parameters: dose 5 mg/kg, dosed compound name [14C]LY2090314, route intravenous; settings: in vivo
[13] = Drug recovery in Sprague-Dawley rat urine at 5 mg/kg, iv administered for 30 mins during 0 to 168 hrs time interval by radio analysis; assay type: ADME, organism-based; parameters: dose 5 mg/kg, dosed compound name [14C]LY2090314, route intravenous; settings: in vivo
Blood = assay: Drug uptake in Sprague-Dawley rat blood at 5 mg/kg, iv administered for 30 mins; assay type: ADME, organism-based; parameters: dose 5 mg/kg, dosed compound name [14C]LY2090314, route intravenous; settings: in vivo, 0.5 h
[14] = Clearance in cancer patient at 120 mg for 60 mins treated 1/8 cycle/day; assay type: ADME, organism-based; parameters: dosed compound name LY2090314; settings: human, in vivo
Plasma = assay: Drug metabolism in Bcrp knockout Sprague-Dawley rat plasma at 5 mg/kg, iv administered for 30 mins; assay type: ADME, organism-based; parameters: dose 5 mg/kg, dosed compound name LY2090314, route intravenous; settings: in vivo, 0.5 h
Canis familiaris [15] = assay: Volume of distribution at steady state in beagle dog assessed as total radioactivity at 5 mg/kg, iv administered for 30 mins; assay type: ADME, organism-based, Canis lupus familiaris; parameters: dose 5 mg/kg, dosed compound name [14C]LY2090314, route intravenous; settings: in vivo, 0.5 h
[16] = Drug recovery in bile duct-cannulated Sprague-Dawley rat assessed as radioactivity in bile during 0 to 12 hrs at 5 mg/kg, iv for 30 mins; assay type: ADME, organism-based; parameters: dose 5 mg/kg, dosed compound name [14C]LY2090314, route intravenous; settings: in vivo
Canis familiaris [17] = assay: Drug recovery in beagle dog cage at 5 mg/kg, iv administered for 30 mins during 0 to 24 hrs time interval by radio analysis; assay type: ADME, organism-based, Canis lupus familiaris; parameters: dose 5 mg/kg, dosed compound name [14C]LY2090314, route intravenous; settings: in vivo
[18] = Clearance in Sprague-Dawley rat at 5 mg/kg, iv administered for 30 mins; assay type: ADME, organism-based; parameters: dose 5 mg/kg, dosed compound name [14C]LY2090314, route intravenous; settings: in vivo
[19] = Half life in cancer patient at 120 mg for 60 mins treated 1/8 cycle/day; assay type: ADME, organism-based; parameters: dosed compound name LY2090314; settings: human, in vivo
[20] = Cmax in cancer patient at 40 mg for 60 mins treated 1/8 cycle/day; assay type: ADME, organism-based; parameters: dose 40 mg, dosed compound name LY2090314; settings: human, in vivo
[21] = AUC (0 to infinity) in cancer patient at 60 mg for 60 mins treated 1/1 cycle/day; assay type: ADME, organism-based; parameters: dose 60 mg, time infinity, dosed compound name LY2090314; settings: human, plasma
[22] = Half life in cancer patient at 80 mg for 60 mins treated 1/1 cycle/day; assay type: ADME, organism-based; parameters: dosed compound name LY2090314; settings: human, in vivo
[23] = AUC (0 to infinity) in cancer patient at 40 mg for 60 mins treated 1/1 cycle/day; assay type: ADME, organism-based; parameters: dose 40 mg, time infinity, dosed compound name LY2090314; settings: human, plasma
[24] = Volume of distribution at steady state in cancer patient at 10 mg for 60 mins treated 1/1 cycle/day; assay type: ADME, organism-based; parameters: dosed compound name LY2090314; settings: human, in vivo, read-out: Vdss
[25] = Drug metabolism in Mdr1a knockout Sprague-Dawley rat urine at 5 mg/kg, iv administered for 30 mins; assay type: ADME, organism-based; parameters: dose 5 mg/kg, dosed compound name LY2090314, route intravenous; settings: in vivo, 0.5 h

clearance [1]: 765 mL/min
Vd [2]: 1.19 L/kg
clearance [3]: 633 mL/min
Radiolabel recovery (Canis familiaris [4]): 88%
AUC(0-inf) [5]: 427 ng·h/mL
clearance [6]: 605 mL/min
Drug metabolism [7]: metabolite_detected
Radiolabel recovery [8]: 85.2%
Tmax [9]: 0.98 h
clearance [10]: 825 mL/min
AUC(0-inf) [11]: 2190 ng·h/mL
Radiolabel recovery [12]: 1.94%
Radiolabel recovery [13]: 0.8%
Compound recovery (Blood): 83.4%
clearance [14]: 638 mL/min
Drug metabolism (Plasma): metabolite_not_detected
Vdss (Canis familiaris [15]): 9.84 L/kg
Radiolabel recovery [16]: 1.78%
Radiolabel recovery (Canis familiaris [17]): 2.03%
clearance [18]: 57.5 mL/min/kg
half-life [19]: 3.05 h
Cmax [20]: 657 ng/mL
AUC(0-inf) [21]: 1600 ng·h/mL
half-life [22]: 2.57 h
AUC(0-inf) [23]: 976 ng·h/mL
Vd [24]: 89.7 L
Drug metabolism [25]: metabolite_detected
Structure (SMILES): O=C1NC(=O)C(c2cnc3ccccn23)=C1c1cn2c3c(cc(F)cc13)CN(C(=O)N1CCCCC1)CC2 [LY-2090314]
